ChEMBL document CHEMBL3885881, “DrugMatrix”

Organism: Rattus norvegicus
Test: DrugMatrix - Regimen: Daily Repeat
Type: toxicity, organism-based, Sprague-Dawley
Design: regimen Daily Repeat, gender Male, age 6-8 weeks
Details: in vivo, po, route oral GAVAGE, vehicle 100 % WATER; for ALANINE AMINOTRANSFERASE / ALBUMIN / ALKALINE PHOSPHATASE / ASPARTATE AMINOTRANSFERASE / BLOOD UREA NITROGEN / CARBON DIOXIDE / CHLORIDE / CHOLESTEROL / CREATINE PHOSPHOKINASE / CREATININE / GLUCOSE / LACTATE DEHYDROGENASE / LIPASE / PHOSPHORUS / POTASSIUM / SODIUM / TOTAL BILIRUBIN / TOTAL PROTEIN / URIC ACID: tissue Plasma
[1] = 235 mg/kg, 72 h, tissue Blood, dose level Low, time 3 day
[2] = 235 mg/kg, 72 h, dose level Low, time 3 day
[3] = 235 mg/kg, 120 h, tissue Blood, dose level Low, time 5 day
[4] = 235 mg/kg, 120 h, dose level Low, time 5 day
[5] = 850 mg/kg, 72 h, tissue Blood, dose level M1, time 3 day

CCCC(CCC)C(=O)O [VALPROIC ACID]
ABSOLUTE MONOCYTE [1]: 121.33 CELLS/uL
ABSOLUTE SEGMENTED NEUTROPHIL [1]: 678.33 CELLS/uL
BASOPHIL [1]: 0%
EOSINOPHIL [1]: 0.67%
ERYTHROCYTE COUNT [1]: 5.06 x10E6/uL
HEMATOCRIT [1]: 32.73%
LEUKOCYTE COUNT [1]: 4.63 x10E3/uL
LYMPHOCYTE [1]: 81.33%
MEAN CORPUSCULAR HEMOGLOBIN [1]: 25.03 pg
MEAN CORPUSCULAR HEMOGLOBIN CONCENTRATION [1]: 38.63 G/DL
MEAN CORPUSCULAR VOLUME [1]: 64.7 fL
MONOCYTE [1]: 2.67%
NEUTROPHIL [1]: 15.33%
NUCLEATED RED BLOOD CELLS [1]: 0 /100WBC
PLATELET COUNT [1]: 772 x10E3/uL
ALANINE AMINOTRANSFERASE [2]: 57 u/L
ALBUMIN [2]: 4.1 G/DL
ALKALINE PHOSPHATASE [2]: 212.67 u/L
ASPARTATE AMINOTRANSFERASE [2]: 81 u/L
BLOOD UREA NITROGEN [2]: 11 mg/dL
CARBON DIOXIDE [2]: 37.33 mmol/L
CHLORIDE [2]: 98.33 MEQ/L
CHOLESTEROL [2]: 62 mg/dL
CREATINE PHOSPHOKINASE [2]: 233 u/L
CREATININE [2]: 0.3 mg/dL
GLUCOSE [2]: 154 mg/dL
LACTATE DEHYDROGENASE [2]: 73 u/L
LIPASE [2]: 10 u/L
PHOSPHORUS [2]: 9.7 mg/dL
POTASSIUM [2]: 5.09 MEQ/L
SODIUM [2]: 143.63 MEQ/L
TOTAL BILIRUBIN [2]: 0.13 mg/dL
TOTAL PROTEIN [2]: 5.57 G/DL
URIC ACID [2]: 0.47 mg/dL
ABSOLUTE BASOPHIL [3]: 0 CELLS/uL
ABSOLUTE EOSINOPHIL [3]: 0 CELLS/uL
ABSOLUTE LYMPHOCYTE [3]: 6770.33 CELLS/uL
ABSOLUTE MONOCYTE [3]: 195 CELLS/uL
ABSOLUTE SEGMENTED NEUTROPHIL [3]: 868 CELLS/uL
BASOPHIL [3]: 0%
EOSINOPHIL [3]: 0%
ERYTHROCYTE COUNT [3]: 5.27 x10E6/uL
HEMATOCRIT [3]: 33.47%
LEUKOCYTE COUNT [3]: 7.83 x10E3/uL
LYMPHOCYTE [3]: 89%
MEAN CORPUSCULAR HEMOGLOBIN [3]: 24.47 pg
MEAN CORPUSCULAR HEMOGLOBIN CONCENTRATION [3]: 38.57 G/DL
MEAN CORPUSCULAR VOLUME [3]: 63.43 fL
MONOCYTE [3]: 2.33%
NEUTROPHIL [3]: 8.67%
NUCLEATED RED BLOOD CELLS [3]: 0 /100WBC
PLATELET COUNT [3]: 955 x10E3/uL
ALANINE AMINOTRANSFERASE [4]: 52.33 u/L
ALBUMIN [4]: 4.03 G/DL
ALKALINE PHOSPHATASE [4]: 290.67 u/L
ASPARTATE AMINOTRANSFERASE [4]: 77.33 u/L
BLOOD UREA NITROGEN [4]: 12 mg/dL
CARBON DIOXIDE [4]: 28.67 mmol/L
CHLORIDE [4]: 103.67 MEQ/L
CHOLESTEROL [4]: 71.67 mg/dL
CREATINE PHOSPHOKINASE [4]: 272 u/L
CREATININE [4]: 0.22 mg/dL
GLUCOSE [4]: 144.33 mg/dL
LACTATE DEHYDROGENASE [4]: 50.67 u/L
LIPASE [4]: 9.33 u/L
PHOSPHORUS [4]: 10.47 mg/dL
POTASSIUM [4]: 5.47 MEQ/L
SODIUM [4]: 144.07 MEQ/L
TOTAL BILIRUBIN [4]: 0.13 mg/dL
TOTAL PROTEIN [4]: 5.93 G/DL
URIC ACID [4]: 0.43 mg/dL
ABSOLUTE BASOPHIL [5]: 0 CELLS/uL
ABSOLUTE EOSINOPHIL [5]: 40.67 CELLS/uL
